From ChEMBL document CHEMBL4433196, “A novel delocalized lipophilic cation-chlorambucil conjugate inhibits P-glycoprotein in HepG2/ADM cells” (Bioorg Med Chem, 2017) come the findings set out here.

pIC50: −log10 of the molar value. Calls of active or inactive are those of the source. The rule behind the calls is not given here.

Series [1] is described as follows: Cytotoxicity against human HepG2/ADM cells assessed as cell growth inhibition incubated for 72 hrs by MTT assay. The format is functional, cell-based. (Tetrazolium dyes change colour on reduction, which living cells bring about.)
The test system of the next series is HepG2. Nature of the series: Cytotoxicity against human HepG2 cells assessed as cell growth inhibition incubated for 72 hrs by MTT assay. Type of series: functional, cell-based. The following applies: HepG2, 72 h.
The nature of series [2]: Potency index, ratio of IC50 for human HepG2/ADM cells to IC50 for human HepG2 cells. Type of series: functional.
Series [3] can be described thus: Drug localization in cellular membrane of human HepG2 cells at 20 uM incubated for 2 hrs by mitotracker 633 staining based inverted confocal microscope. Type of series: ADME, cell membranes. To be noted: hepg2, 2 h.
The nature of series [4]: Induction of apoptosis in human HepG2/ADM cells assessed as necrotic cells at 20 uM incubated for 72 hrs by Annexin V-FITC/SYTOX Red staining based flow cytometric analysis (Rvb =0%). The format is functional. (In flow cytometry, cells or beads pass a laser one at a time.)
Series [5] relates to HepG2/Adm. Nature of the series: Downregulation of MDR1 mRNA in human HepG2/ADM cells at 5 to 20 uM incubated for 24 hrs by real time qPCR analysis. The format is functional, cell-based. (In qPCR the cycle at which signal appears reflects the starting amount.)
Series [6] deals with T1, ATP-dependent translocase ABCB1 (Homo sapiens, UniProt P08183). Kind of series: Inhibition of Pgp in human HepG2/ADM cells assessed as increase in intracellular ADM level at 20 uM incubated for 2 hrs by mitotracker 633 staining based inverted confocal microscopic analysis. Type of series: cell-based.
A short description of series [7]: Drug localization in cellular membrane of human HepG2/ADM cells at 20 uM incubated for 2 hrs by mitotracker 633 staining based inverted confocal microscope. Type of series: ADME, cell membranes.
Series [8] can be described thus: Induction of apoptosis in human HepG2/ADM cells assessed as late apoptotic cells at 20 uM incubated for 72 hrs by Annexin V-FITC/SYTOX Red staining based flow cytometric analysis (Rvb =0.04%). The format is functional.
Series [9] deals with T1, ATP-dependent translocase ABCB1. Nature of the series: Inhibition of Pgp in human HepG2/ADM cells assessed as increase in intracellular ADM level at 20 uM incubated for 12 hrs by flow cytometric analysis. Type of series: cell-based.
For another series, the system named is L02. Kind of series: Cytotoxicity against human L02 cells assessed as cell growth inhibition incubated for 72 hrs by MTT assay. The format is cell-based. To be noted: L02, 72 h.
The nature of series [10]: Induction of apoptosis in human HepG2/ADM cells assessed as necrotic cells at 20 uM incubated for 72 hrs in presence of ADM by Annexin V-FITC/SYTOX Red staining based flow cytometric analysis (Rvb =0.1%). Type of series: functional.
Series [11] deals with HepG2/Adm. Kind of series: Downregulation of Pgp in human HepG2/ADM cells at 5 to 20 uM incubated for 48 hrs by Western blot analysis. The format is functional, cell-based.
Series [12] in a line: Drug accumulation in human HepG2 cells at 10 uM incubated for 3 hrs by flow cytometric analysis. Type of series: ADME, cell-based. To be noted: hepg2, 3 h.
The next series deals with NIH3T3. Nature of the series: Cytotoxicity against mouse NIH/3T3 cells assessed as cell growth inhibition incubated for 72 hrs by MTT assay. The format is cell-based. To be noted: NIH3T3, 72 h.
A short description of series [13]: Drug localization in mitochondria of human HepG2/ADM cells at 20 uM incubated for 2 hrs by mitotracker 633 staining based inverted confocal microscope. Type of series: ADME.
Series [14] can be described thus: Induction of apoptosis in human HepG2/ADM cells assessed as viable cells at 20 uM incubated for 72 hrs in presence of ADM by Annexin V-FITC/SYTOX Red staining based flow cytometric analysis (reference value: 88.7%). Type of series: functional. The following applies: read-out: Activity.
The nature of series [15]: Induction of apoptosis in human HepG2/ADM cells assessed as early apoptotic cells at 20 uM incubated for 72 hrs by Annexin V-FITC/SYTOX Red staining based flow cytometric analysis (reference value: 5.52%). The format is functional.
For series [16], the target named is T1, ATP-dependent translocase ABCB1. Nature of the series: Inhibition of Pgp in human HepG2/ADM cells at 20 uM incubated for 2 hrs by mitotracker 633 staining based inverted confocal microscopy. Type of series: cell-based.
A short description of series [17]: Drug localization in mitochondria of human HepG2 cells at 20 uM incubated for 2 hrs by mitotracker 633 staining based inverted confocal microscope. The format is ADME. The following applies: hepg2, 2 h.
Series [18] is described as follows: Induction of apoptosis in human HepG2/ADM cells assessed as early apoptotic cells at 20 uM incubated for 72 hrs in presence of ADM by Annexin V-FITC/SYTOX Red staining based flow cytometric analysis (reference value: 8.58%). The format is functional.
Series [19] relates to HepG2/Adm. Nature of the series: Downregulation of Pgp in human HepG2/ADM cells at 20 uM incubated for 48 hrs by flow cytometric analysis. Type of series: functional, cell-based.
The nature of series [20]: Induction of apoptosis in human HepG2/ADM cells assessed as viable cell at 20 uM incubated for 72 hrs by Annexin V-FITC/SYTOX Red staining based flow cytometric analysis (reference value: 94.4%). The format is functional.
Series [21] in a line: Drug accumulation in human L02 cells at 10 uM incubated for 3 hrs by flow cytometric analysis. The format is ADME, cell-based. To be noted: l02, 3 h.
A short description of series [22]: Induction of apoptosis in human HepG2/ADM cells assessed as apoptotic cells at 20 uM incubated for 72 hrs in presence of ADM by Annexin V-FITC/SYTOX Red staining based flow cytometric analysis (reference value: 2.60%). Type of series: functional.

The pIC50 is the negative decadic logarithm of the IC50, by convention in mol/L.

T1 sequence (P08183 whole entry): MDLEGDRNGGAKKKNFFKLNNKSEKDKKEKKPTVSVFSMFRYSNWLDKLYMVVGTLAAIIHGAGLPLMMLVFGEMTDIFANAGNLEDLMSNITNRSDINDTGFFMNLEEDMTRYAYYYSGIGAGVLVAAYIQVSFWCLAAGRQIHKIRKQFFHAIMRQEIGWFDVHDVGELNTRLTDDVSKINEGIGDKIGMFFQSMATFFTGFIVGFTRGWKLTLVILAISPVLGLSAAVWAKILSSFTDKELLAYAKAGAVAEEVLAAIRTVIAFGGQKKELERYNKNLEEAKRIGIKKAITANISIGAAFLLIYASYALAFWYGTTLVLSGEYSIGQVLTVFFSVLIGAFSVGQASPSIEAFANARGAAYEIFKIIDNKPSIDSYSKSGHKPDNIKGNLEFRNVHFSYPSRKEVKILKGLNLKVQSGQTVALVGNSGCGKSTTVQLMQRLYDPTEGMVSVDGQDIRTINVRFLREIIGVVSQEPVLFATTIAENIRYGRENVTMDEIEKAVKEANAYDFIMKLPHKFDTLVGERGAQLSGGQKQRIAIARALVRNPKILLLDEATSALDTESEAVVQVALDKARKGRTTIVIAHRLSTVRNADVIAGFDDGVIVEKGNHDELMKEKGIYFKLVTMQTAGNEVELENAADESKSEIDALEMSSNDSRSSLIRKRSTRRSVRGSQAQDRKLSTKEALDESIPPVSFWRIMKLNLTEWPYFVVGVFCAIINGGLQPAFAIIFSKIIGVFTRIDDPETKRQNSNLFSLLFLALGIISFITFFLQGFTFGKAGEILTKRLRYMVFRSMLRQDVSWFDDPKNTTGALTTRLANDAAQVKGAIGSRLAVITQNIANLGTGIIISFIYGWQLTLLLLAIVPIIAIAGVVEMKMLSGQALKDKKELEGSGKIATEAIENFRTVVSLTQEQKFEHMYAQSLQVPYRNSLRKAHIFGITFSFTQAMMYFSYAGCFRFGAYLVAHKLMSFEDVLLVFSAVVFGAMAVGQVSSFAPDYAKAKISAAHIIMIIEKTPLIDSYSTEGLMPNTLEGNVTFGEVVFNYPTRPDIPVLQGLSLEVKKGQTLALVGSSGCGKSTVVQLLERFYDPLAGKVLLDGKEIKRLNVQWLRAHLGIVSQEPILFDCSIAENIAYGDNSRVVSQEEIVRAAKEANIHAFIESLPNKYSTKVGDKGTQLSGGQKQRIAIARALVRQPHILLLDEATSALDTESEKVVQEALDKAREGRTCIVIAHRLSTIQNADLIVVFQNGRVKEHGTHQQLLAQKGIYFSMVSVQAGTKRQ

As for `COc1cccc2c1C(=O)c1c(O)c3c(c(O)c1C2=O)C[C@@](O)(C(=O)CO)C[C@@H]3O[C@H]1C[C@H](N)[C@H](O)[C@H](C)O1.Cl` [DOXORUBICIN HYDROCHLORIDE], the negative logarithm of the IC50 (pIC50) in [1] was 3.84; in the series with HepG2, 6.17. For the same compound, the “Ratio IC50” value in series [2] stood at 215.4.

Take `O=C(CCCc1ccc(N(CCCl)CCCl)cc1)NCCC[n+]1ccc(/C=C/c2c[nH]c3ccc(F)cc23)cc1.[Br-]`: the Drug uptake result in series [3] is on record as “Active”; in [7], “Active”; in series [12], “Active”; in series [13] it was “Active”; in series [17] it was “Active”; in [21], “Not Active”. Besides, the Activity came out at 0.01% in series [4]; 0.09% in series [8]; 0% in series [10]; 14.2% in series [15]; 64% in [18]; 85.7% in [20]. In addition, the Activity in [22] came out at 2.38%. The negative logarithm of the IC50 (pIC50) in series [1] was 4.22; with L02, < 3.22; in the series with NIH3T3, < 3.22; with HepG2, 4.22. Also, the result with HepG2/Adm [5], in the series with HepG2/Adm [11] and in the series with HepG2/Adm [19] was Active. Moreover, the “inhibition (INH)” value in series [6], in series [9] and in [16] was “Active” throughout. Also, the viability at 20 µM in [14] was 33.5%.

With `Cl.NCCC[n+]1ccc(/C=C/c2c[nH]c3ccc(F)cc23)cc1.[Br-]`, the Activity in series [4] was 0.25%; in series [8], 2.66%; in [10], 1.21%; in series [15], 8.72%; in series [18], 26.2%; in series [20], 88.4%. Also, the Activity in [22] worked out at 17%. Further, the negative-log IC50 (pIC50) was 3.99 in series [1], < 3.22 in the series with L02, < 3.22 in the series on NIH3T3 and 3.99 in the series on HepG2. Further, in [14], the viability at 20 µM turned out to be 55.6%.

Regarding `O=C(O)CCCc1ccc(N(CCCl)CCCl)cc1` [CHLORAMBUCIL], the Activity was found to be 0.01% in series [4]; 0.01% in series [8]; 0% in series [10]; 9.08% in [15]; 12.4% in [18]; 90.9% in [20]. In addition, the Activity in series [22] amounted to 0.05%. Moreover, the negative-log IC50 (pIC50) in [1] was 3.53; in the series with L02, < 3.22; with NIH3T3, < 3.22; in the series with HepG2, 3.72. In addition, the viability at 20 µM in series [14] amounted to 87.5%.
